According to patent US20060035295A1, “Method for determination of thymidine kinase 1 activity and the use thereof” (priority 2002, published 2006):
“Also recorded” adds a separate entry of the source.

How the values were obtained:
[1] = biological target: T1, TK2 (Homo sapiens, UniProt O00142); details: cited from earlier work
T1 sequence (O00142 34-265): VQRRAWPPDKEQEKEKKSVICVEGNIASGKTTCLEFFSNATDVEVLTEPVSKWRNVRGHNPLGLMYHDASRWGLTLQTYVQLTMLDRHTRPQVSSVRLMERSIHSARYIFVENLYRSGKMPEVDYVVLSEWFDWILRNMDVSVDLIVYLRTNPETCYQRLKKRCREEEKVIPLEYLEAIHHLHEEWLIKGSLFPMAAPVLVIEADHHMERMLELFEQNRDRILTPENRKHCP

[2] = test system: chicken anti-AZTMP antibodies; assay: Competitive assay for anti-AZTMP antibody specificity (AZXMP hapten coated plates); assay type: binding; details: increasing amounts of competitor added to anti-AZTMP antibody solution; FIG. 2
Protocol: FIG. 2 Anti-AZTMP antibody specificity. Dose response curve for the competitive assay, according to example 1, between free AZTMP (left curve, denoted AZTMP) or AZT (right curve, denoted AZT) and Immobilised hapten, AZXMP (see FIG. 1) illustrating the specificity of chicken anti-AZTMP antibodies. Y-axis: original absorbance values (B) are normalised against values obtained in the absence of competitor (B0) to obtain (B/B0).
Antibody specificity and titre were evaluated using the competitive assay format described in example 4. To evaluate non-specific binding the antibody was substituted with diluent. Antibody specificity and titre was also evaluated using an assay whereby AZXMP hapten was coated to plates. AZXMP was conjugated to BSA using GA as linker and subsequently coated to the microtiter plates. In this assay, 100 μl of serially diluted antibody solutions were first incubated with AZXMP coated wells for 1 h at RT.
Wells of microtiter plates were washed three times with PBST (PBS plus 0,05% Tween 20). 100 μL of secondary antibody (diluted Horse Radish Peroxidase (HRP)-labelled anti-Goat IgG solution or anti-IgY antibody) was added and incubated for 30 min at room temperature. After 3 times washing with 250 μl PBST, bound antibody complexes were detected using TMB as substrate. The induced colour reaction was stopped after 5 min using 1M H2SO4 and detected at 450 nm. […]

[3] = biological target: T2, thymidine phosphatase (Homo sapiens, UniProt P19971); details: in blood serum or in cell extracts; cited from earlier work
T2 sequence (P19971 11-482): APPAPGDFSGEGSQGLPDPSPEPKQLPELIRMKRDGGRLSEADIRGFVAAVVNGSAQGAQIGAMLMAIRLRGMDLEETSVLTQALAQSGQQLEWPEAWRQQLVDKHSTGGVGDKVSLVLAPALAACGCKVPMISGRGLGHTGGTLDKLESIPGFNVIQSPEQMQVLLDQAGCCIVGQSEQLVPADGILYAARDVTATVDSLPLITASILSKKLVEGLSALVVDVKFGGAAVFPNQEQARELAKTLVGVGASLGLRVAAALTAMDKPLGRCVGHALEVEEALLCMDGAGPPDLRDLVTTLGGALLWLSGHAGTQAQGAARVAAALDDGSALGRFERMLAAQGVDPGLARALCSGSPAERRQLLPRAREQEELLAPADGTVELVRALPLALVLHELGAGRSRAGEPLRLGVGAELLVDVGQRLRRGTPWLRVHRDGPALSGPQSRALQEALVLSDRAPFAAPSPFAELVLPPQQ

[4] = blood serum or cell extracts; cited from earlier work
[5] = biological target: T3, TK1 (Homo sapiens, UniProt P04183); details: almost the same relative efficiency as Thymidine; cited from earlier work
T3 sequence (P04183 1-234): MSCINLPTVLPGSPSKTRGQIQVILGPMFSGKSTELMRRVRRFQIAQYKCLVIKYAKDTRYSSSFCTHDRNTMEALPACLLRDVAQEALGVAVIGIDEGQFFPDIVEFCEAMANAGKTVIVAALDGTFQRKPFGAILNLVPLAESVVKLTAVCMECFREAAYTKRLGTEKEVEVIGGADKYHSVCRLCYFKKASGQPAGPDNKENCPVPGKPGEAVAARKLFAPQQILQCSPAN

[6] = test system: serum TK; assay: Serum TK measurement with tritium labelled AZT; assay type: biochemical, human; details: 16 clinical patient serum samples, 4 h at 37° C.
Protocol: In order to determine if serum TK can use AZT as substrate, an experiment was performed with 16 clinical patient serum samples (20 μl) mixed with 2 μL ^3H-AZT (Ci/mmol Moraveck Inc, USA) and 20 μL reaction mixture containing 10 mM Tris-HCl (pH 7.6), 5 mM ATP, 5 mM MgCl2, 3.5 mM NaF, 2 mM DTT. The assay was performed 4 h at 37° C. and the amount of AZTMP formed was determined by DE 51 ion exchange paper method as described (9). Previous experiments had established that this amount of serum gave a linear reaction during the time period tested.

[7] = test system: phosphatases; assay: TK ELISA with UMP in substrate buffer to inhibit phosphatase activity; assay type: biochemical, human; details: 1 mM UMP; two of four tested sera
Protocol: A potential problem for the analysis of a kinase activity in patient sera is the presence of phosphatase activity in the same sera to drive the reverse reaction (dephosphorylaUon). One way to inhibit the phosphatase is to include UMP in the substrate buffer to protect AZTMP from being dephosphorylated to AZT.
Substrate buffers containing 172 mM HEPES, 62 mM NaOH, 62 mM MgCl2*6H2O, 34 mM KCl, 142 mM Mannitol, 7,8 mM ATP, 12 mM DTE, and 25 μg/ml AZT were prepared—with variable concentrations UMP, i.e. 0, 0.1, 1 or 5 mM UMP.
A TK1 standard preparation 80 U/L (in heat inactivated fetal calf serum) was diluted in 9 g/L deionized-water, also used as zero standard level, to give further standard levels of 40, 20, 10, 5 and 2,5 U/L, respectively. Four human sera were also assayed. Two sera were from healthy blood donors and two sera from patients monitored with TK REA.
Next the TK reactions were performed by adding 50 μl of substrate buffer together with 50 μL of TK1 standard/or patient serum sample in non-coated microtitre wells.
The plate was incubated for 60 minutes at 37° C. […]
For the detection 50 μl were transferred to a plate which plate was coated with 1 μg/well rabbit anti chicken IgY (Sigma, MO, USA). […] The TMB reaction was stopped with 100 μl acid TMB stop and the absorbance read at 450 nm.

Compound	phosphorylation by TK2 [1]	competition with immobilised AZXMP for antibody binding [2]	substrate for thymidine phosphatase [3]	metabolic stability [4]	substrate quality for TK1 [5]	use as substrate by serum TK [6]	effect on TK values of tested sera [7]
Cc1cn([C@H]2C[C@H](N=[N+]=[N-])[C@@H](CO)O2)c(=O)[nH]c1=O [AZT, 3′-azido-3′-deoxythymidine]	low capacity to phosphorylate AZT	not able to compete out AZXMP	does not use AZT as a substrate	stable metabolites	good substrate for TK1	can efficiently use AZT as substrate; also recorded: selective, efficient and stable substrates	
Cc1cn([C@H]2C[C@H](N=[N+]=[N-])[C@@H](COP(=O)(O)O)O2)c(=O)[nH]c1=O [AZTMP, AZT-5′-monophosphate]				stable metabolites			
O=c1ccn([C@@H]2O[C@H](COP(=O)(O)O)[C@@H](O)[C@H]2O)c(=O)[nH]1 [UMP, Uridine monophosphate]							significantly higher TK values
